Laboratory results: PubChem BioAssay (NCI)
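Results reflect a 48-hour exposure of cells in 96-well plates to compound at five concentrations. At the TGI there is no net growth.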

Assays:
Experiment in all cases: NCI tumour cell line growth inhibition, 48 h
UACC-257 melanoma = tested on: UACC-257 melanoma
MDA-N = tested on: MDA-N
NCI-H226 lung = tested on: NCI-H226 lung
HL-60(TB) leukemia = tested on: HL-60(TB) leukemia
DU-145 prostate = tested on: DU-145 prostate
A549 NSCLC = tested on: A549 NSCLC
A498 renal = tested on: A498 renal
MCF7 breast = tested on: MCF7 breast
COLO 205 colon = tested on: COLO 205 colon
RPMI-8226 leukemia = tested on: RPMI-8226 leukemia
ACHN renal = tested on: ACHN renal
OVCAR-5 ovarian = tested on: OVCAR-5 ovarian
CCRF-CEM leukemia = tested on: CCRF-CEM leukemia
CAKI-1 renal = tested on: CAKI-1 renal
U251 CNS = tested on: U251 CNS
NCI/ADR-RES ovarian = tested on: NCI/ADR-RES ovarian
MOLT-4 leukemia = tested on: MOLT-4 leukemia
HT29 colon = tested on: HT29 colon
NCI-H522 lung = tested on: NCI-H522 lung
NCI-H23 lung = tested on: NCI-H23 lung

SMILES | TGI (UACC-257 melanoma) [µM] | TGI (MDA-N) [µM] | TGI (NCI-H226 lung) [µM] | TGI (HL-60(TB) leukemia) [µM] | TGI (DU-145 prostate) [µM] | TGI (A549 NSCLC) [µM] | TGI (A498 renal) [µM] | TGI (MCF7 breast) [µM] | TGI (COLO 205 colon) [µM] | TGI (RPMI-8226 leukemia) [µM] | TGI (ACHN renal) [µM] | TGI (OVCAR-5 ovarian) [µM] | TGI (CCRF-CEM leukemia) [µM] | TGI (CAKI-1 renal) [µM] | TGI (U251 CNS) [µM] | TGI (NCI/ADR-RES ovarian) [µM] | TGI (MOLT-4 leukemia) [µM] | TGI (HT29 colon) [µM] | TGI (NCI-H522 lung) [µM] | TGI (NCI-H23 lung) [µM]
CCOc1ccc(N2C(=O)NC3(c4ccccc4)N(C)C(=O)N(C)C23c2ccccc2)cc1 (stereo not given) | > 100 | > 100 | > 100 | > 100 | > 100 | > 100 | > 100 | > 100 | > 100 | > 100 | > 100 | > 100 | > 100 | > 100 | > 100 | > 100 | > 100 | > 100 | > 100 | > 100
COc1ccc(OC)c(N=Cc2cc(OC)c(OC)c(OC)c2)c1 | > 100 | > 100 | > 100 | > 100 | > 100 | > 100 | > 100 | > 100 | > 100 | > 76.6 | > 100 | > 100 | 66.4 | > 100 | > 100 | > 100 | > 100 | > 100 | 57.7 | > 100
O=C(/C=C\c1ccsc1)c1ccccc1 | 34.8 | 25.8 | 34.1 | 4.16 | 25.4 | 8.48 | 15.5 | 6.72 | 30.5 | 7.32 | 21.1 | 32.4 | 3.41 | 8.12 | 15.3 | 32.4 | > 100 | 15.5 | 4.34 | 15.6
COC(O)C(=O)c1c2c(cc3c1CCC3)CCC2 (stereo not given) | > 100 | > 100 | > 100 | 79.9 | > 100 | > 100 | > 100 | > 100 | > 100 | > 100 | > 100 | > 100 | > 100 | > 100 | > 100 | > 100 | > 100 | > 100 | > 100 | > 100
O=S(=O)(O)c1ccc(Nc2ccnc3ccccc23)cc1 | > 100 | > 100 | > 100 | > 100 | > 100 | > 100 | > 100 | > 100 | > 100 | > 100 | > 100 | > 100 | > 100 | > 100 | > 100 | > 100 | > 100 | > 100 | > 100 | > 100
O=C1C(Cl)=C(N2CCN(CCOCCO)CC2)C(=O)c2ccccc21 | 15.7 | 4.17 | 31 | 14 | 34 | 34.2 | 33.4 | 14.4 | 28.7 | > 26.9 | 19.5 | 37.4 | 7.27 | 29.5 | 31 | 25 | 5.99 | 30 | 3.57 | 28
COc1ccc2nc3cc([N+](=O)[O-])ccc3c(NNc3ccc([N+](=O)[O-])cc3)c2c1 | 16 | > 100 | > 56.4 | 54.2 | > 100 | > 100 | 0.382 | > 100 | > 100 | > 71.5 | > 100 | > 100 | 98.6 | 29.6 | > 93.7 | > 100 | > 100 | > 63.9 | > 100 | > 100
CC1(C)CCCC2CC2CCC(C)(C)C1=O (stereo not given) | > 100 | > 100 | > 100 | 41.2 | > 100 | > 100 | > 100 | 75.8 | 39 | 68.1 | > 100 | > 100 | 38.4 | > 100 | 37.3 | > 100 | 83.1 | > 100 | > 100 | > 100
CC(C)C1CC(CO)(CNc2nc(N)nc(Cl)c2/C=N\O)C1 (stereo not given) | 11.8 | 23.9 | 51.2 | 29.1 | > 100 | 18.8 | 34.6 | 4.27 | 11.8 | 31.9 | 35 | 85.2 | > 79.2 | 33.7 | 39.6 | 27.5 | 63 | 15.5 | 22.4 | 24.3
CC(C)(C)C(O)CC(O)(C(F)(F)F)C(F)(F)F (stereo not given) | > 100 | > 100 | > 100 | > 100 | > 100 | > 100 | > 100 | > 100 | > 100 | > 100 | > 100 | > 100 | > 100 | > 100 | > 100 | > 100 | > 100 | > 100 | > 100 | > 100
COc1cccc(C2c3cc4c(cc3OC(NNC(N)=O)C2C)OCO4)c1O (stereo not given) | > 100 | 0.653 | 9.4 | 4 | > 100 | > 39.8 | 42.4 | > 100 | 9.05 | > 100 | > 44.4 | > 100 | > 100 | > 77.9 | 34.3 | > 100 | > 100 | > 23 | 10.9 | > 100
CCCCCCc1cc2cc(C(=O)NCc3ccccc3)c(=N)oc2cc1O | > 100 | > 100 | > 100 | > 100 | > 100 | > 100 | > 100 | > 100 | > 100 | > 100 | > 100 | > 100 | > 100 | > 100 | > 100 | > 100 | > 100 | > 100 | > 100 | > 100
CC(=O)c1cc2c(s1)C(=O)c1ccsc1C2=O | 0.285 | 0.197 | 3.75 | 0.369 | 0.743 | 4.2 | 12.6 | 1.68 | 40.5 | 49.7 | 0.626 | 2.03 | 1.3 | 4.29 | 0.785 | 2.59 | 2.17 | 4.19 | 0.486 | 0.337
COC(=O)[C@H](C)NC(=O)C1(CNC(=O)[C@H](C)NC(=O)OC(C)(C)C)Cc2ccccc2-c2ccccc2C1 | > 78.9 | > 58.5 | 61.5 | 39.5 | > 42.7 | 48.8 | > 71.1 | > 84.3 | 53.9 | 23.9 | > 57.7 | 41.1 | 43.9 | > 39.6 | 36.5 | 41.4 | 37.6 | 39.8 | 20.8 | 37.8
CCOC(=O)c1cc(C2=CCNC2=O)c(-c2cc(C)no2)[nH]1 | > 100 | > 100 | > 100 | 56.8 | > 100 | > 100 | > 100 | > 100 | > 100 | > 100 | > 100 | > 100 | > 100 | > 100 | > 100 | > 100 | > 100 | > 100 | 46.6 | > 100
O=C(CCc1ccc(O)c(O)c1)NCCc1ccccc1 | > 100 | 43.3 | > 100 | 34 | > 100 | > 100 | > 100 | 35 | > 100 | > 76.1 | > 100 | > 100 | > 90.8 | 41 | > 100 | > 100 | > 100 | > 72.2 | 43.4 | > 100
Brc1c2c(c(Br)c3nsnc13)N=S=N2 | > 100 | > 73 | > 76.6 | 12.3 | > 100 | > 100 | > 96.4 | > 65.6 | > 60.1 | 78.1 | 72.2 | 64.3 | 5.2 | 40.4 | 46.7 | 79.8 | 68.9 | > 60.4 | > 57.5 | > 69.1
O=C1C=CC(=O)c2c(O)c(NCCO)c(Cl)c(O)c21 | 2.78 | 3.42 | > 10 | 5.95 | 4.98 | 3.78 | > 10 | 3.94 | 3.4 | > 10 | > 10 | > 5.87 | > 10 | > 10 | > 10 | > 10 | > 10 | 7.43 | > 10 | 5.59
